In patent US20250332300A1 (priority 2024, published 2025):
Where a name gives a salt, the structure may show the parent alone. Read-outs that look alike come from different tables or passages of the source. Positions of bridges follow the written chain, without caps; N, C: chain ends. Non-standard residues stand in square brackets, D forms with d. Residues, ends and D or L forms follow the SMILES beside them. Triazole bridges read from a SMILES are 1,4-linked. Chains are numbered I, II in the order given. *: point of attachment. DOTA = O=C(O)CN1CCN(CC(=O)O)CCN(CC(=O)*)CCN(CC(=O)O)CC1; PEG10 = NCCOCCOCCOCCOCCOCCOCCOCCOCCOCCOCCC(=O)O; Trp(5-OH) = N[C@@H](Cc1c[nH]c2ccc(O)cc12)C(=O)O; NMePhe(4-F) = CN[C@@H](Cc1ccc(F)cc1)C(=O)O; Lys(N3) = [N-]=[N+]=NCCCC[C@H](N)C(=O)O; NMehPhe = CN[C@@H](CCc1ccccc1)C(=O)O; Aad = N[C@@H](CCCC(=O)O)C(=O)O; Gly(cPr) = N[C@H](C(=O)O)C1CC1; aThr = C[C@H](O)[C@H](N)C(=O)O; NMeK = CN[C@@H](CCCCN)C(=O)O; NMeDap = CN[C@@H](CN)C(=O)O; Orn = NCCC[C@H](N)C(=O)O; Pra = C#CC[C@H](N)C(=O)O; Sar = CNCC(=O)O

How the values were obtained:
Assay type in all cases: binding
[1] = target: T1, human HER2 (23-652) (Homo sapiens, UniProt P04626); assay: Surface plasmon resonance (SPR) for assessment of peptide affinity, human HER2; parameters: towards human HER2 (23-652) and mouse HER2 (23-653); made in house
Protocol: Each protein was immobilized either onto a SA sensorchip (Cytiva, BR-1005-31) or CM5 sensorchip (Cytiva, BR-1005-30) to a density of 800-2000 RU. […] For the assay setup the same conditions (flow rate, running buffer, peptide dilution) as described above were used. In a first step the Anti Fc IgG Ab (from Human Antibody Capture Kit, Ref. 29234600, Cytiva) was diluted into acetate pH 5.0 at 25 ug/mL and immobilized at a flow rate of 10 uL/min over 360 s to reach a density around 6000 RU. […] The peptides were tested with an association time of 280 s followed by a dissociation time of 3000 s at a flow rate of 30 uL/min. The regeneration was done using 3 M magnesium chloride regeneration solution as obtained with a contact time of 30 s at a flow rate of 10 uL/min. Curve fitting was performed using the BiacoreTM 8K evaluation software.

[2] = target: T1, human HER2 (23-652); assay: TR-FRET competition assay for peptide potency, human HER2; parameters: towards human HER2 (23-652) and mouse HER2 (23-653); made in house; host or cells: mammalian cells
Protocol: (§1) Both proteins containing a His-, Avi-tag and biotin in Nterminus, were expressed in mammalian cells and produced in house. […] Standard assay conditions consist of 20 uL total volume in white 384-well plates (Greiner), in 10 mM HEPES buffer containing 150 mM NaCl, 3 mM EDTA, 0.05% Tween20 and 1% final DMSO. […] The ratiometric FRET assay readout is calculated from the ratio of the raw data of the two distinct fluorescence signals measured in time resolved mode (fluorescence 665 nm/fluorescence 620 nm). IC50 values were calculated with the standard Novartis in-house assay data analysis software (Helios software application, Novartis Institutes for BioMedical Research, unpublished) using the methods described in Comput. Methods. Programs. Biomed. 2006, 82, 31-37 (regression algorithms for nonlinear dose-response curve fitting).

[3] = target: mouse HER2 (23-653) (Mus musculus, UniProt P70424); assay: TR-FRET competition assay for peptide potency, mouse HER2; parameters: mouse HER2 (23-653) using a Cy5 labeled peptide as a probe; made in house; host or cells: mammalian cells
Protocol: as §1

[4] = SPR, human HER2 extracellular domain, 25° C., 1:1 binding model; read-out: huHER2-SPR-ONC KD
[5] = TR-FRET competition with Cy5 labeled peptide probe, 0.1 nM human HER2, 24 h incubation; read-out: huHER2 TR-FRET IC50
[6] = TR-FRET competition with Cy5 labeled peptide probe, 0.1 nM mouse HER2, 24 h incubation; read-out: moHER2 TR-FRET IC50

| Molecule | Kd [1, 4] | IC50 [3, 6] | IC50 [2, 5] | also measured |
| --- | --- | --- | --- | --- |
| I: Ac-[Pra][Sar][Sar][Sar][Sar][Sar][Sar][Sar][Sar][Sar][Sar][Sar][Sar][Sar][Sar]K(DOTA)[Sar][Sar][Sar][Sar][Sar][Sar][Sar][Sar][Sar][Sar][Sar][Sar][Sar][Sar][Pra]-NH2 / II: Ac-[Aad]YS[NMehPhe][NMeK](Ac)[Trp(5-OH)]W[Gly(cPr)][NMeDap][NMePhe(4-F)][Lys(N3)]-NH2 / III: Ac-[Aad]YS[NMehPhe][NMeK](Ac)[Trp(5-OH)]W[Gly(cPr)][NMeDap][NMePhe(4-F)][Lys(N3)]-NH2 (triazole I:1-II:11, I:31-III:11; lactam II:1-II:9, III:1-III:9) [Example C4] | < 0.1 nM | 0.4 nM | 0.1 nM |  |
| CC(=O)N[C@H]1CCCC(=O)NC[C@@H](C(=O)N(C)[C@@H](Cc2ccc(F)cc2)C(=O)N[C@@H](CCCCNC(=O)CN2CCN(CC(=O)O)CCN(CC(=O)O)CCN(CC(=O)O)CC2)C(N)=O)N(C)C(=O)[C@H](C2CC2)NC(=O)[C@H](Cc2c[nH]c3ccccc23)NC(=O)[C@H](Cc2c[nH]c3ccc(O)cc23)NC(=O)[C@H](CCCCNC(=O)CO)N(C)C(=O)[C@H](CCc2ccccc2)N(C)C(=O)[C@H](CO)NC(=O)[C@H](Cc2ccc(O)cc2)NC1=O [Example C20] |  | 0.3 nM | 0.1 nM |  |
| COCCOCCOCCOCCOCCOCCOCCOCCOCCOCCOCCOCCC(=O)N[C@H]1CCCC(=O)NC[C@@H](C(=O)N(C)[C@@H](Cc2ccc(F)cc2)C(=O)N[C@@H](CCCCNC(=O)CN2CCN(CC(=O)O)CCN(CC(=O)O)CC2)C(N)=O)N(C)C(=O)[C@H](C2CC2)NC(=O)[C@H](Cc2c[nH]c3ccccc23)NC(=O)[C@H](Cc2c[nH]c3ccc(O)cc23)NC(=O)[C@H](CCCCNC(C)=O)N(C)C(=O)[C@H](CCc2ccccc2)N(C)C(=O)[C@H](CO)NC(=O)[C@H](Cc2ccc(O)cc2)NC1=O [Example B11] | < 0.1 nM | 0.2 nM |  | IC50 ([2]; read-out: huHER2 TR-FRET IC50): < 0.1 nM |
| CC(=O)NCCCC[C@H]1C(=O)N[C@@H](Cc2c[nH]c3ccc(O)cc23)C(=O)N[C@@H](Cc2c[nH]c3ccccc23)C(=O)N[C@@H]([C@H](C)O)C(=O)N(C)[C@H](C(=O)N(C)[C@@H](Cc2ccc(F)cc2)C(N)=O)CNC(=O)CCC[C@H](NC(C)=O)C(=O)N[C@@H](Cc2ccc(O)cc2)C(=O)N[C@@H](CO)C(=O)N(C)[C@@H](CCc2ccccc2)C(=O)N1C [Example A6, (3S,6S,9S,12S,15S,18S,21S,24S,27S)-9-((1H-indol-3-yl)methyl)-27-acetamido-15-(4-acetamidobutyl)-N-((S)-1-amino-3-(4-fluorophenyl)-1-oxopropan-2-yl)-12-((5-hydroxy-1H-indol-3-yl)methyl)-24-(4-hydroxybenzyl)-6-((S)-1-hydroxyethyl)-21-(hydroxymethyl)-N,4,16,19-tetramethyl-5,8,11,14,17,20,23,26,31-nonaoxo-18-phenethyl-1,4,7,10,13,16,19,22,25-nonaazacyclohentriacontane-3-carboxamide] (Ac-[Aad]YS[NMehPhe][NMeK](Ac)[Trp(5-OH)]W[aThr][NMeDap][NMePhe(4-F)]-NH2; lactam 1-9) |  |  |  | IC50 ([2]; read-out: huHER2 TR-FRET IC50): 1.3 nM |
| CC(=O)NCCCC[C@H]1C(=O)N[C@@H](Cc2c[nH]c3ccc(O)cc23)C(=O)N[C@@H](Cc2c[nH]c3ccccc23)C(=O)N[C@@H](C2CC2)C(=O)N(C)[C@H](C(=O)N(C)[C@@H](Cc2ccc(F)cc2)C(=O)N[C@@H](CCCCNC(=O)CN2CCN(CC(=O)O)CCN(CC(=O)O)CCN(CC(=O)O)CC2)C(N)=O)CNC(=O)CCC[C@H](NC(=O)Cc2nnn[nH]2)C(=O)N[C@@H](Cc2ccc(O)cc2)C(=O)N[C@@H](CO)C(=O)N(C)[C@@H](CCc2ccccc2)C(=O)N1C [Example C13] |  |  |  | Kd ([1]; read-out: huHER2-SPR-ONC KD; SPR, human HER2 extracellular domain, 25° C., 1:1 binding model): < 0.1 nM; IC50 ([2]; read-out: huHER2 TR-FRET IC50; TR-FRET competition with Cy5 labeled peptide probe, 0.1 nM human HER2, 24 h incubation): < 0.1 nM; IC50 ([3]; read-out: moHER2 TR-FRET IC50; TR-FRET competition with Cy5 labeled peptide probe, 0.1 nM mouse HER2, 24 h incubation): 0.1 nM |
| CC(=O)NCCCC[C@H]1C(=O)N[C@@H](Cc2c[nH]c3ccc(O)cc23)C(=O)N[C@@H](C)C(=O)N[C@@H](C2CC2)C(=O)N(C)[C@H](C(=O)N(C)[C@@H](Cc2ccc(F)cc2)C(=O)N[C@@H](CCCCNC(=O)CN2CCN(CC(=O)O)CCN(CC(=O)O)CCN(CC(=O)O)CC2)C(N)=O)CNC(=O)CCC[C@H](NC(C)=O)C(=O)N[C@@H](Cc2ccc(O)cc2)C(=O)N[C@@H](CO)C(=O)N(C)[C@@H](CCc2ccccc2)C(=O)N1C [Example C32] (Ac-[Aad]YS[NMehPhe][NMeK](Ac)[Trp(5-OH)]A[Gly(cPr)][NMeDap][NMePhe(4-F)]K(DOTA)-NH2; lactam 1-9) |  | > 10000 nM | 9810 nM |  |
| CC(=O)NCCCC[C@H]1C(=O)N[C@@H](Cc2c[nH]c3ccc(O)cc23)C(=O)N[C@@H](Cc2c[nH]c3ccccc23)C(=O)N[C@@H](C2CC2)C(=O)N(C)[C@H](C(=O)N(C)[C@@H](Cc2ccc(F)cc2)C(=O)N[C@@H](CCCCNC(=O)CN2CCN(CC(=O)O)CCN(CC(=O)O)CCN(CC(=O)O)CC2)C(N)=O)CNC(=O)CCC[C@H](NC(C)=O)C(=O)N[C@H](Cc2ccc(O)cc2)C(=O)N[C@H](CO)C(=O)N(C)[C@@H](CCc2ccccc2)C(=O)N1C [Example C3] |  | > 10000 nM | > 9500 nM |  |

Continued, in another order:

| Kd [1, 4] | IC50 [3, 6] | Molecule | IC50 [2, 5] | also measured |
| --- | --- | --- | --- | --- |
| 0.7 nM | 0.7 nM | CC(=O)NCCCC[C@H]1C(=O)N[C@@H](Cc2c[nH]c3ccc(O)cc23)C(=O)N[C@@H](Cc2c[nH]c3ccccc23)C(=O)N[C@@H](C2CC2)C(=O)N(C)[C@H](C(=O)N(C)[C@@H](Cc2ccc(F)cc2)C(N)=O)CNC(=O)CCC[C@H](NC(=O)CCOCCOCCOCCOCCOCCOCCOCCOCCOCCOCCNC(=O)CN2CCN(CC(=O)O)CCN(CC(=O)O)CCN(CC(=O)O)CC2)C(=O)N[C@@H](Cc2ccc(O)cc2)C(=O)N[C@@H](CO)C(=O)N(C)[C@@H](CCc2ccccc2)C(=O)N1C [Example C5] ({DOTA-PEG10}-[Aad]YS[NMehPhe][NMeK](Ac)[Trp(5-OH)]W[Gly(cPr)][NMeDap][NMePhe(4-F)]-NH2; lactam 1-9) | 0.5 nM |  |
| < 0.1 nM | 0.2 nM | CC(=O)NCCCC[C@H]1C(=O)N[C@@H](Cc2c[nH]c3ccc(O)cc23)C(=O)N[C@@H](Cc2c[nH]c3ccccc23)C(=O)N[C@@H](C2CC2)C(=O)N(C)[C@H](C(=O)N(C)[C@@H](Cc2ccc(F)cc2)C(=O)N[C@@H](CCCNC(=O)CN2CCN(CC(=O)O)CCN(CC(=O)O)CCN(CC(=O)O)CC2)C(N)=O)CNC(=O)CCC[C@H](NC(C)=O)C(=O)N[C@@H](Cc2ccc(O)cc2)C(=O)N[C@@H](CO)C(=O)N(C)[C@@H](CCc2ccccc2)C(=O)N1C [Example C9] (Ac-[Aad]YS[NMehPhe][NMeK](Ac)[Trp(5-OH)]W[Gly(cPr)][NMeDap][NMePhe(4-F)][Orn](DOTA)-NH2; lactam 1-9) | < 0.1 nM |  |
|  | 3.3 nM | CC(=O)NCCCC[C@H]1C(=O)N[C@@H](Cc2c[nH]c3ccc(O)cc23)C(=O)N[C@@H](Cc2c[nH]c3ccccc23)C(=O)N[C@@H](C2CC2)C(=O)N(C)[C@H](C(=O)N(C)[C@@H](Cc2ccc(F)cc2)C(N)=O)CNC(=O)CCC[C@H](NC(=O)CN2CCN(CC(=O)O)CCN(CC(=O)O)CCN(CC(=O)O)CC2)C(=O)N[C@@H](Cc2ccc(O)cc2)C(=O)N[C@@H](CO)C(=O)N(C)[C@@H](CCc2ccccc2)C(=O)N1C [Example C8] ({DOTA}-[Aad]YS[NMehPhe][NMeK](Ac)[Trp(5-OH)]W[Gly(cPr)][NMeDap][NMePhe(4-F)]-NH2; lactam 1-9) | 2.1 nM |  |
|  | > 10000 nM | CC(=O)NCCCC[C@H]1C(=O)N[C@@H](Cc2c[nH]c3ccc(O)cc23)C(=O)N[C@@H](Cc2c[nH]c3ccccc23)C(=O)N[C@@H](C2CC2)C(=O)N(C)[C@H](C(=O)N(C)[C@@H](Cc2ccc(F)cc2)C(=O)N[C@@H](CCCCN)C(N)=O)CNC(=O)CCC[C@H](NC(C)=O)C(=O)N[C@H](Cc2ccc(O)cc2)C(=O)N[C@H](CO)C(=O)N(C)[C@@H](CCc2ccccc2)C(=O)N1C [Example A48, TFA salt] |  | IC50 ([2]; read-out: huHER2 TR-FRET IC50): 8300 nM |
